What was measured:
angiotensin II receptor [1] = assay: Screening Potential Angiotensin II Receptor Antagonists in Salt-Depleted Normotensive Rats; format: in vivo, rat (Sprague-Dawley)
Method: 2. Test Procedure for Screening Potential Angiotensin II Receptor Antagonists in Salt-Depleted Normotensive Rats
Purpose: This test is designed to detect hypotensive effects of a compound after oral dosing in normotensive animals made renin-dependent by salt depletion.
Method: Male 350-450 g Sprague-Dawley rats are implanted with teflon microcannulae via the middle caudal artery under 20 mg/kg intravenous Brevital® anesthesia and permitted a 4-7 day surgical recovery period. Throughout recovery and testing animals are individually housed unrestrained in standard rat metabolism cages and receive continuous 0.5 ml/h intra-arterial 0.25N saline infusion through a spring-shielded swivelling tether connected to an infusion/blood pressure recording system to maintain arterial cannula patency. Animals are maintained on Low Sodium (0.03%) Purina Rat Chow #5881 throughout the study. After the recovery period animals are given oral 50 mg/kg furosemide (Lasix, Hoechst-Roussel Pharmaceutical) doses on two consecutive days to produce marked diuresis and plasma volume depletion that makes maintenance of normal blood pressure highly dependent on function of the renin-angiotensin-aldosteronesystem. Three hours after the second furosemide dose, rats are given test compound uniformly suspended in 1% methylcellulose (n=3/dose level) or 1 mL 1% methylcellulose vehicle (n=3) orally by gavage and blood pressure is continuously recorded for 24 h using a Buxco computerized data recording system. Compound-induced changes in blood pressure are compared to concurrent vehicle control blood pressures in order to detect drug effect.
Interpretation: Prior to salt depletion, normotensive rats typically show a plasma renin activity (PRA, ng angiotensin I/mL plasma/h, RIA) of 0.7. After the salt-depletion protocol PRA values taken 3 h after the furosemide dose have risen to about 7.4.
Compounds that decrease blood pressure 10 or more mmHg (MAP) compared to concurrent control after oral dosing are considered active in this test. Maximum possible response is about -35 mmHg. […]

angiotensin II receptor [2] = molecular target: T1, angiotensin II receptor (Oryctolagus cuniculus, UniProt P34976)
T1 sequence (P34976 1-359): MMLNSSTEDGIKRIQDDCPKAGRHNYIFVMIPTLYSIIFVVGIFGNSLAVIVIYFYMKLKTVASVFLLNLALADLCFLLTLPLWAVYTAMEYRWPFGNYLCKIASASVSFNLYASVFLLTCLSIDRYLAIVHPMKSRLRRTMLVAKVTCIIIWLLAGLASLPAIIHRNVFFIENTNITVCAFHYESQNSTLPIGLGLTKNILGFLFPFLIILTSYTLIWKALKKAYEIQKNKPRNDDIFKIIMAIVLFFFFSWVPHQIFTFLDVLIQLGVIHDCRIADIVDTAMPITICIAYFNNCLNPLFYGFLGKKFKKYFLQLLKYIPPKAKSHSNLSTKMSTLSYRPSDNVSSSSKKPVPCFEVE
Text: Inhibition of Angiotensin II Dose-Response in Rabbit Thoracic Aorta:
Purpose: To identify competitive receptor antagonists of an angiotensin II-1 activity, i.e., angiotensin II-induced vasoconstriction in in vitro aortic rings.
Procedure: 1.8 to 2.3 kg New Zealand white rabbits are sacrificed with an intravenous sodium pentobarbital overdose and the thoracic aorta gently dissected free from the aortic root to the level of the diaphragm, into ice cold Krebs bicarbonate buffer. The aorta is gently freed of clots and adventitia and cleanly cut with a scalpel into 5 mm segments. Each ring is suspended from a Gould isotonic force transducer in a tissue bath containing 15 mL oxygenated Krebs bicarbonate buffer regulated at 37° C. Initial tension is adjusted to 4.0 g and equilibrated over three 20-min wash periods to achieve a baseline tension of 3.0 g. Graded angiotensin II doses are given cumulatively to achieve a maximal contraction. Three 20-min washes are performed to remove the initial angiotensin II effect. […]
Analysis: Angiotensin II vasoconstrictor tension in grams is expressed as a percent of maximal contraction for the before and after test compound angiotensin II dose-responses. Angiotensin II ED50 and ED90 values are determined from the angiotensin II dose-response curves generated before and after test compound. […]

angiotensin II receptor [3] = assay: Oral activity in the spontaneously hypertensive rat, as determined in test procedure 2; format: in vivo

Kb (angiotensin II receptor [2]) [nM]	Structure (SMILES)	blood pressure response (angiotensin II receptor [1]; normotensive rats that have not been salt-depleted)	plasma renin activity (PRA) (angiotensin II receptor [1]; salt-depleted rats after DuP-753 treatment, RIA)	blood pressure decrease (mean arterial pressure, MAP) (angiotensin II receptor [1]; salt-depleted rats, typical response)	maximum mean arterial pressure drop (angiotensin II receptor [3]) [mm Hg]	oral activity (angiotensin II receptor [3])	duration (angiotensin II receptor [3]; duration of blood pressure effect) [h]
–	CCCCc1nc(Cl)c(CO)n1Cc1ccc(-c2ccccc2-c2nn[nH]n2)cc1 [DuP-753]	does not change	about 41.4 ng angiotensin I/mL plasma/h	about 35 mmHg	–	–	–
123	C[C@@H]1CN(Cc2ccc(-c3ccccc3-c3nn[nH]n3)cc2)C[C@H](C)O1 [cis-2,6-Dimethyl-4-[4-(2'-tetrazolophenyl)phenylmethyl]morpholine]	–	–	–	31	good oral activity	12

From US5256658A, “Angiotensin II inhibitors” (Ortho Pharmaceutical Corporation, priority 1993, dated 1993)
